Test results as given in patent publication US20050038113A1, “Valproic acid and derivatives for the combinatorial therapeutic treatment of human cancers and for the treatment of tumor metastasis and minimal residual disease” (G2M Cancer Drugs AG, priority 2001, published 2005).

Tests used:
[1] = used as an antiepileptic drug during pregnancy; cited from earlier work
[2] = tested on: wild-type cells (hematopoietic progenitor cells); assay: X-ray sensitivity, colonies in methylcellulose; assay type: cell-based, Murine; settings: VPA 1 mM, X-ray 2 Gy
Procedure: Lin- cells were transduced as described for FIG. 11 (see also methods in example 10 for details), and sorted by FACS. 12 hours after sorting, cells were washed with PBS, and then incubated for 8-12 hours in medium with cytokines [data presented in FIG. 12 using IL-3 (20 ng/ml), IL-6 (20 ng/ml), SCF (100 ng/ml), G-CSF (60 ng/ml), GM-CSF (20 ng/ml)] or without cytokines (data not shown). […] Finally, cells were plated in methylcellulose containing medium (StemCell Technologies) in the presence of cytokines (IL3, IL6, SCF, G- and GM-CSF) for 8-10 days. For FIG. 12 uninfected cells (“Control”), or cells expressing GFP alone (“Empty Vector”), or cells expressing GFP and PML-RAR (“PML-RAR”) were used. 8 days after plating in methylcellulose, the total number of colonies was measured.

[3] = tested on: mouse embryos; settings: when properly dosed; cited from earlier work
[4] = tested on: Renca-lacZ/EGFRvIII renal carcinoma cells; assay: MTT cell viability assay; assay type: cell-based, Mouse; settings: 40 h
Description: (§1) Renal cell carcinoma (Renca) cells stably transfected with plasmid pZeoSV2/lacZ encoding E. coli β-galactosidase, and either with plasmids pSV2ErbB2N and pSV2neo encoding c-erbB2 and neomycin resistance (Renca-lacZ/ErbB2) (Maurer-Gebhard et al., Cancer Res. 58: 2661-2666, 1998), or plasmids pLTR-EGFR or pLTR-EGFRvIII and pSV2neo encoding epidermal growth factor (EGF) receptor, the oncogenically activated EGF receptor variant EGFRvIII, and neomycin resistance (Renca-lacZ/EGFR and Renca-lacZ/EGFRvIII) (Schmidt et al., Oncogene 18: 1711-1721, 1999) were grown in RPMI-1640 medium supplemented with 8% FBS, 2 mM L-glutamine, 100 U/ml penicillin, 100 μg/ml streptomycin, 0.25 mg/ml Zeocin and 0.48 mg/ml G418.
(§2) Tumor cells were seeded in 96 well plates at a density of 1×10^4 cells/well in normal growth medium. SKBR3, A431 and SKOV3 cells were treated for 40 h with valproic acid at a final concentration of 3 mM, or 10 ng/ml of the recombinant anti-ErbB2 single chain antibody-toxin scFv(FRP5)-ETA (Wels et al., Cancer Res. 52: 6310-6317, 1992), or 10 ng/ml of the recombinant anti-EGF receptor single chain antibody-toxin scFv(14E1)-ETA (Schmidt et al., Brit. J. Cancer 75: 1575-1584, 1997), or a combination of valproic acid with either scFv(FRP5)-ETA or scFv(14E1)-ETA at the same concentrations. Renca-lacZ/ErbB2, Renca-lacZ/EGFR and Renca-lacZ/EGFRvIII cells were treated for 40 h with valproic acid at a final concentration of 1 mM, or 10 ng/ml of the recombinant anti-ErbB2 single chain antibody-toxin scFv(FRP5)-ETA, or 1 ng/ml of the recombinant anti-EGF receptor single chain antibody-toxin scFv(14E1)-ETA, or a combination of valproic acid with either scFv(FRP5)-ETA or scFv(14E1)-ETA at the same concentrations. Control cells were grown in the absence of valproic acid or antibody-toxins. Ten μl of 10 mg/ml 3-(4,5-dimethylthiazole-2-yl)-2,5 diphenyltetrazolium bromide (MTT) (Sigma, Deisenhofen, Germany) in PBS were added to each well and the cells were incubated for another 3 h. Cells were lysed by the addition of 90 μl of lysis buffer (20% SDS in 50% dimethyl formamide, pH 4.7). After solubilization of the formazan product, the absorption at 590 nm was determined in a microplate reader (Dynatech, Denkendorf, Germany) and the relative amount of viable cells in comparison to cells cultured without the addition of valproic acid or antibody-toxins was calculated.

[5] = tested on: Renca-lacZ/EGFR renal carcinoma cells; assay: MTT cell viability assay; assay type: cell-based, Mouse; settings: 40 h
Description: as §1, §2

[6] = tested on: Renca-lacZ/ErbB2 renal carcinoma cells; assay: MTT cell viability assay; assay type: cell-based, Mouse; settings: 40 h
Description: as §1, §2

[7] = tested on: human endothelial cells; assay: endothelial cell activation (anti-angiogenesis); assay type: cell-based; settings: VPA and inhibitors of VEGF-R tyrosine kinase activity at the same time, vs individual drugs alone
Procedure: In addition, the effect of inhibitors of vascular endothelial growth factor receptor (VEGF-R) tyrosine kinase activity was tested on these cells since VEGF-R inhibitors are known to act anti-angiogenic in model systems of tumor-associated endothelial cell activation (e.g. vascular tube formation and/or endothelial cell activation).

[8] = tested on: histone deacetylases; settings: cited from earlier work
[9] = tested on: HCT-15 colon cancer cells; assay: SRB-assay, reduction in total cellular biomass; assay type: cell-based, human
Procedure: The reduction in cellular biomass was measured by SRB-assay. For this assay cells were seeded in 96 well culture dishes at densities between 3000 and 8000 cells per well. […] Cultures were fixed with cold TCA producing a final TCA concentration of 10%. After 1 hour of incubation at 4° C. the cells were washed five times with water and air dried. Fixed cells were stained for 30 minutes with 0,4% (wt/vol) Sulforhodamine B (SRB) dissolved in 1% acetic acid and washed four times with 1% acetic acid to remove unbound dye. After air drying bound dye was solubilized with 10 mM unbuffered Tris base (pH 10,5) for 5 minutes. Optical densities were read on a Titertek Multiskan Plus spectrophotometric plate reader at 550 nm. Six test wells for each dose-response were set in parallel with 12 growth control wells per cell line. A measure of the cell population density at time 0 (To; the time at which the drug was added) was also made from 12 extra reference wells of cells fixed with TCA just prior to drug addition to the test plates. Background OD of complete medium with 5% FBS fixed and stained as described above was also determined in 12 separate wells. From the unprocessed OD data from each microtiter plate the background OD measurements (i.e. OD of complete medium plus stain and OD of cells at T0) were subtracted thus giving the reduction of cellular biomass of the cells.
This was in particular obvious when lower concentrations of 5-FU were used. E.g. […] Thus, this combinatorial activity of these two drugs must be explained via a synergistic activity of this treatment.

[10] = 1 mM valproic acid + 1 ng/ml scFv(14E1)-ETA
[11] = single reagent, valproic acid 1 mM, scFv(14E1)-ETA 1 ng/ml

In the case of `CCCC(CCC)C(=O)O` [VPA, 2-propylpentanoic acid], the “birth defects (neural tube closure defects and other malformations) in born children” value [1] is listed as “a few percent”, the X-ray sensitivity [2] is listed as “slightly decreased the sensitivity” and the teratogenicity [3] is listed as “teratogenic in the majority of mouse embryos”. For the same compound, the “cell viability, combination treatment” value [4, 10] was “pronounced additive therapeutic effect”, the cell viability [4, 11] was “inhibit the viability” and the “cell viability, combination treatment” value [5, 10] was “pronounced additive therapeutic effect”. For the same compound, the cell viability [5, 11] was “inhibit the viability”, the “cell viability, combination treatment” value ([6]; 1 mM valproic acid + 10 ng/ml scFv(FRP5)-ETA) was “pronounced additive therapeutic effect” and the cell viability ([6]; single reagent, valproic acid 1 mM, scFv(FRP5)-ETA 10 ng/ml) was “inhibit the viability”. The “activation of endothelial cells” value [7] was “at least additive effect”, the histone deacetylase inhibition [8] was “acts as an inhibitor of histone deacetylases” and the “reduction in cellular biomass” value ([9]; 0.75 mM VPA in combination with 5-FU, 48 hours, compared to VPA or 5-FU alone) was “synergistic reduction in cellular biomass”. The “decrease in cellular biomass” value ([9]; 5-FU lower than 0.5 μM in combination with 0.75 mM VPA, compared to 0.75 mM VPA alone) was “stronger decrease in cellular biomass”.
